From patent US12465659B2, “Iron(III) complexes having new contrast agent properties, for magnetic resonance imaging” (CHARITÉ—UNIVERSITÄTSMEDIZIN BERLIN, priority 2019, dated 2025)

Key:
[1] = excretion route of the iron complex; conditions: in vivo
[2] = T1-relaxivity measurements at different magnetic field strengths in water and foetal bovine serum; assay type: physicochemical
Experimental: For the subsequent T1-relaxivity measurements which were carried out, ultra-pure water and foetal bovine serum (FBS, pH 7.7) were used as the solvent for the metallic complexes. The relaxivity measurements at different magnetic field strengths were carried out on the following instruments: 0.94 T with a NMR relaxometer (Bruker Minispec mq 40, Germany), 1.5 T with a SIEMENS MAGNETOM Sonata MRI, 3 T with a SIEMENS MAGNETOM Lumina MRI and 7 T with a Bruker Pharmascan Kleintier-MRI.

[3] = pH dependency of T1- and T2-relaxivity in water (0.94 T NMR relaxometer); assay type: physicochemical; conditions: pH<6
Excerpt: At pH<6, a maximum T1-relaxivity of 1.7 l·mmol^−1·s^−1 or T2-relaxivity of 1.9 l·mmol^−1·s^−1 was reached.

Row | excretion route [1] | T1-relaxivity (r1) per metal ion ([2]; 0.94 T, 37° C., FBS (pH 7.7)) [L/mmol/s] | T1-relaxivity per molecule ([2]; 0.94 T, 37° C., FBS (pH 7.7)) [L/mmol/s] | T1-relaxivity (r1) per metal ion ([2]; 0.94 T, 37° C., water) [L/mmol/s] | T1-relaxivity per molecule ([2]; 0.94 T, 37° C., water) [L/mmol/s] | T1-relaxivity (r1) per metal ion ([2]; 1.5 T, 23° C., FBS (pH 7.7)) [L/mmol/s] | T1-relaxivity per molecule ([2]; 1.5 T, 23° C., FBS (pH 7.7)) [L/mmol/s] | T1-relaxivity (r1) per metal ion ([2]; 1.5 T, 23° C., water) [L/mmol/s] | T1-relaxivity per molecule ([2]; 1.5 T, 23° C., water) [L/mmol/s] | T1-relaxivity (r1) per metal ion ([2]; 3.0 T, 37° C., FBS (pH 7.7)) [L/mmol/s] | T1-relaxivity per molecule ([2]; 3.0 T, 37° C., FBS (pH 7.7)) [L/mmol/s] | T1-relaxivity (r1) per metal ion ([2]; 3.0 T, 37° C., water) [L/mmol/s] | T1-relaxivity per molecule ([2]; 3.0 T, 37° C., water) [L/mmol/s] | T1-relaxivity (r1) per metal ion ([2]; 7.0 T, 37° C., FBS (pH 7.7)) [L/mmol/s] | T1-relaxivity per molecule ([2]; 7.0 T, 37° C., FBS (pH 7.7)) [L/mmol/s] | T1-relaxivity (r1) per metal ion ([2]; 7.0 T, 37° C., water) [L/mmol/s] | T1-relaxivity per molecule ([2]; 7.0 T, 37° C., water) [L/mmol/s] | maximum T1-relaxivity [3] [L/mmol/s] | maximum T2-relaxivity [3] [L/mmol/s] | Compound
1 | liver excretion | 2.18 | 4.36 | 1.99 | 3.98 | 3.26 | 6.52 | 2.75 | 5.5 | 3.39 | 6.78 | 2.99 | 5.98 | 3.23 | 6.46 | 2.65 | 5.3 | – | – | O=C(O)CN(CC(=O)O)[C@@H]1CCCC[C@H]1N(CC(=O)O)CC(=O)N[C@H]1CC[C@H](NC(=O)CN(CC(=O)O)[C@@H]2CCCC[C@H]2N(CC(=O)O)CC(=O)O)CC1 [(1-2)]
2 | – | 2.01 | – | 1.92 | – | 2.74 | – | 2.27 | – | 3.06 | – | 2.64 | – | 2.61 | – | 2.38 | – | – | – | N[C@H]1CC[C@H](NC(=O)CN(CC(=O)O)[C@@H]2CCCC[C@H]2N(CC(=O)O)CC(=O)O)CC1 [(2-2)]
3 | – | – | – | – | – | – | – | – | – | – | – | – | – | – | – | – | – | 1.7 | 1.9 | NCCNC(=O)CN(CC(=O)O)[C@@H]1CCCC[C@H]1N(CC(=O)O)CC(=O)O [(2-1)]
